Counter-ions that a name gives are not always drawn.
Tests used:
eye = assay: Example 3 ophthalmic examination, modified McDonald-Shadduck scoring (tolerability); type: in vivo, New Zealand White rabbits
Description: Prior to placement on study, each animal underwent an ophthalmic examination (slitlamp biomicroscopy and indirect ophthalmoscopy). Ocular findings were scored according to a modified McDonald-Shadduck Scoring System and recorded on a standardized data sheet. The acceptance criteria for placement on study were scores of “0” for all variables.
Ophthalmic examination (slit-lamp biomicroscopy only) was performed at baseline (prior to the start of dosing) and on Days 1, 4, and 8. Ocular findings were scored according to a modified McDonald-Shadduck Scoring System. A slit lamp was used to observe conjunctival discharge, […], […], the cornea, the surface area of cornea involvement, pannus, pupillary response, aqueous flare, cellular flare, iris involvement, and the lens. An indirect ophthalmoscope was used to observe the vitreous, vitral hemorrhage, retinal detachment, retinal hemorrhage, and choroidal/retinal inflammation. Animals were prepared for observation by using a solution (atropine, tropicaminde, or phenylephrine) to dilate the pupils.
Conjunctival discharge was defined as a whitish gray precipitate from the eye. Scoring was as follows. • 0=Normal, no discharge. • 1=Discharge above normal and present on the inner portion of the eye but not on the lids or hairs of the eyelids. • 2=Discharge is abundant, easily observed and has collected on the lids and hairs of the eyelids. • 3=Discharge has been flowing over the eyelids so as to wet the hairs substantially on the skin around the eye.
Conjunctival congestion causes the blood vessels of the eye to become enlarged. Scoring was as follows. • 0=Normal, may appear blanched to reddish pink without perilimbal injection (except at the 12:00 and 6:00 positions) with vessels of the palpebral and bulbar conjunctiva easily observed. • 1=A flushed, reddish color predominantly confined to the palpebral conjunctiva with some perilimbal injection but primarily confined to the lower and upper parts of the eye from the 4:00 to the 7:00 and 11:00 to 1:00 positions. • 2=Bright red color of the palpebral conjunctiva with accompanying perilimbal injection covering at least 75% of the circumference of the perilimbal region. • 3=Dark, beefy red color with congestion of both the bulbar and palpebral conjunctiva along with pronounced perilimbal injection and the presence of petechial on the conjunctiva. The petechial generally predominates along the nictitating membrane and upper palprebal conjunctiva.
Conjunctival swelling, defined as swelling of the conjunctiva, was scored as follows. • 0=Normal or no swelling of the conjunctival tissue. • 1=Swelling above normal without eversion of the eyelids (easily discerned by noting upper and lower eyelids are positioned as in the normal eye); swelling generally starts in the lower cul-de-sac near the inner canthus. • 2=Swelling with misalignment of the normal approximation of the lower and upper eyelids; primarily confined to the upper eyelid so that in the initial stages, the misapproximation of the eyelids begins by partial eversion of the upper eyelid. In this state the swelling is confined generally to the upper eyelid with some swelling in the lower cul-de-sac. • 3=Swelling definite with partial eversion of the upper and lower eyelids essentially equivalent. […] It is difficult to retract the lids and observe the perilimbal region.
Iris involvement was observed by checking the iris for hyperemia of the blood vessels. Scoring was as follows. • 0=Normal iris without any hyperemia of the blood vessels. • 1=Some loss of transparency. Only the epithelium and/or the anterior half of the stroma are involved. The underlying structures are clearly visible although some cloudiness may be readily apparent. • 2=Involvement of the entire thickness of the stroma. […]

[1] = Example 3 general health observations; type: in vivo, New Zealand White rabbits; conditions: Example 3, 7 days topical or subcutaneous dosing
Description: Animals were observed within their cages once daily throughout the study period. […] General health observations were recorded daily beginning on Day 1 and continuing throughout the course of the study.

[2] = system: intraocular pressure in patients with diabetic macular edema; assay: Change in intraocular pressure from baseline, Compound 1 BID for 28 days (FIG. 1); type: in vivo, human; conditions: doses greater than 15 mg BID, 28 Day EOT
Description: The difference in IOP was determined at the end of the trial, which was 28 days after treatment began (28 Day EOT). Changes in IOP were determined both in the study eye and the fellow eye.

[3] = In vitro diffusion across rabbit cornea and sclera in Franz cell; type: in vitro ADME; conditions: 1.5% of the sodium salt with 5% HPβCD in 50:50 D5W:sterile water
[4] = Day 1, Group 2 (0.45 mg/eye topical BID), N=5

diffusion across rabbit cornea and sclera in Franz cell [3]	SMILES	animals with mild conjunctival congestion (scores=1) (eye; [4])	animals with mild conjunctival swelling (eye; [4])	animals with mild conjunctival congestion (scores=1) (eye; Day 1, Group 3 (1.2 mg/eye topical BID), N=5)	animals with mild conjunctival congestion (scores=1) (eye; Day 1, Group 4 (1.2 mg/eye topical QD), N=5)	animals with mild conjunctival congestion (scores=1) (eye; Day 1, Group 5 (10 mg/kg SC BID), N=5)	animals with mild conjunctival congestion (scores=1) (eye; Day 4, Group 2 (0.45 mg/eye topical BID), N=5)	animals with mild conjunctival congestion (scores=1) (eye; Day 4, Group 3 (1.2 mg/eye topical BID), N=5)	animals with mild conjunctival congestion (scores=1) (eye; Day 4, Group 4 (1.2 mg/eye topical QD), N=5)	animals with mild conjunctival congestion (scores=1) (eye; Day 4, Group 5 (10 mg/kg SC BID), N=5)	ocular anomalies (eye; Day 8, all groups)	relation of mild conjunctival congestion to test article (eye; Example 3)	adverse effects on general health [1]	change in IOP relative to pre-treatment baseline [2]
	COC(=O)N[C@@H](Cc1ccccc1)C(=O)N[C@@H](Cc1ccc(NS(=O)(=O)O)cc1)c1csc(-c2cccs2)n1 [Compound 1 sodium salt]	five	one	two	one	three	two	two	one	none	No ocular anomalies	unrelated to the test article	No adverse effects	
substantial diffusion	COC(=O)N[C@@H](Cc1ccccc1)C(=O)N[C@@H](Cc1ccc(NS(=O)(=O)O)cc1)c1csc(-c2cccs2)n1 [Compound 1]													decreased IOP
